Consider two compounds from patent publication US7718666B2, “Pyrido [2,1-a] isoquinoline derivatives” (Hoffmann-La Roche Inc., priority 2003, dated 2010).

As a reminder, the IC50 is the concentration that gives 50% inhibition. Lower therefore signals greater potency.

SMILES strings stand for the structures.

The target of the assay is human DPP-IV (Homo sapiens, UniProt P27487). In words: DPP-IV activity assay (fluorogenic / colorimetric), IC50 determination.
Chain of human DPP-IV (P27487 31-766): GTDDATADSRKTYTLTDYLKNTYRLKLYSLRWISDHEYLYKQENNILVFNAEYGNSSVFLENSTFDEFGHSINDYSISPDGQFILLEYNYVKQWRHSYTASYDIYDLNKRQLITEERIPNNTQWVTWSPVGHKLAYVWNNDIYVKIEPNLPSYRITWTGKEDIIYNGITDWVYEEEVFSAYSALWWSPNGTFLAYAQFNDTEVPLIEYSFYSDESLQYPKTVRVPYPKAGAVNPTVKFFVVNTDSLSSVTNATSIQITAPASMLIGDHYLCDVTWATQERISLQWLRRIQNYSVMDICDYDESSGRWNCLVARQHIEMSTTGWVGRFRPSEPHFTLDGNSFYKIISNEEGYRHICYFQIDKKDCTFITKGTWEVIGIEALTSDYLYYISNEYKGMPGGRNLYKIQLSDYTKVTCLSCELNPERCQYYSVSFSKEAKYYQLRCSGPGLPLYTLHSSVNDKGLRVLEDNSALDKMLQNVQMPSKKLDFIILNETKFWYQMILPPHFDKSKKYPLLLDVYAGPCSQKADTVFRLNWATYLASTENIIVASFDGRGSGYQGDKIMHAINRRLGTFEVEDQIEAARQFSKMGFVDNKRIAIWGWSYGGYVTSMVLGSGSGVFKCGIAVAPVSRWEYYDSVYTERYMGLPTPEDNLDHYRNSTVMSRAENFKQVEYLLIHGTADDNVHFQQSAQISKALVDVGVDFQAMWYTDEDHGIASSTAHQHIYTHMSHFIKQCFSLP

Experimental: Activity of DPP-IV inhibitors are tested with natural human DPP-IV derived from a human plasma pool or with recombinant human DPP-IV. Human citrate plasma from different donors is pooled, filtered through a 0.2 micron membrane under sterile conditions and aliquots of 1 ml are shock frozen and stored at −120° C. until used. In the colorimetric DPP-IV assay 5 to 10 μl human plasma and in the fluorometric assay 1.0 μl of human plasma in a total assay volume of 100 μl is used as an enzyme source. […] Human DPP-IV is expressed and purified from the culture medium using conventional column chromatography including size exclusion and anion and cation chromatography. […] In the calorimetric DPP-IV assay 20 ng rec.-h DPP-IV and in the fluorometric assay 2 ng rec-h DPP-IV in a total assay volume of 100 μl is used as an enzyme source.
Initial rate constants are calculated by best fit linear regression.
The absorption of pNA liberated from the calorimetric substrate is detected in a Packard SpectraCount at 405 nm continuosly every 2 minutes for 30 to 120 minutes. Initial rate constants are calculated by best fit linear regression.
DPP-IV activity assays are performed in 96 well plates at 37° C. in a total assay volume of 100 μl. […]
Kinetic parameters of the enzyme reaction are calculated at least 5 different substrate concentrations and at least 5 different test compound concentrations.

As to `COc1cc2c(cc1OC)[C@@H]1C[C@H](N)[C@@H](c3cc(C)ccn3)CN1CC2` [Example 9, 9,10-Dimethoxy-3(S)-(4-methyl-pyridin-2-yl)-1,3,4,6,7,11b(S)-hexahydro-2H-pyrido[2,1a]isoquinolin-2(S)-ylamine], half-maximal inhibition (IC50) required 11.5 nM.
Next, `COc1cc2c(cc1OC)[C@@H]1C[C@H](N)[C@@H](n3ccc(C)c3)CN1CC2` (racemic) [Example 33, rac-9,10-Dimethoxy-3β-(3-methyl-pyrrol-1-yl)-1,3,4,6,7,11bβ-hexahydro-2H-pyrido[2,1-a]isoquinolin-2α-ylamine]: 5.4 nM.
